Assay results from the SangsterLogP compilation.

In order of rising logP:
1. CNC(=S)NCCCCC(NC(=O)C(CC(=O)N1CCOCC1)Cc1cccc2ccccc12)C(=O)NC(CC1CCCCC1)C(O)CC(=O)NCCN1CCOCC1 (stereo unspecified)  1.68
2. CC(C)CC(NC(=O)C(CCCCNC(=N)N[N+](=O)[O-])NC(=O)C(CC(=O)N1CCOCC1)Cc1cccc2ccccc12)C(O)CC(=O)NCCN1CCOCC1 (stereo unspecified)  1.95
3. CC(=O)NCC#CCC(NC(=O)C(Cc1ccccc1)NS(=O)(=O)N1CCOCC1)C(=O)NC(CC1CCCCC1)C(O)CC(=O)NCCN1CCOCC1 (stereo unspecified)  2.12
4. O=C(CC(O)C(CC1CCCCC1)NC(=O)C(NC(=O)C(Cc1ccccc1)NS(=O)(=O)N1CCOCC1)C1=CN=N1)NCCN1CCOCC1 (stereo unspecified)  2.25
5. CNC(=S)NCCCCC(NC(=O)C(Cc1ccccc1)NS(=O)(=O)N1CCOCC1)C(=O)NC(CC1CCCCC1)C(O)CC(=O)NCCN1CCOCC1 (stereo unspecified)  2.26
6. CC(C)CC(NC(=O)C(CCCCNC(=O)OCc1ccccc1)NC(=O)C(Cc1ccccc1)NS(=O)(=O)N1CCOCC1)C(=O)C(F)(F)C(=O)NCCN1CCOCC1 (stereo unspecified)  2.32
7. CNC(=S)NCCCCC(NC(=O)C(Cc1ccccc1)NS(=O)(=O)N(C)C)C(=O)NC(CC1CCCCC1)C(O)CC(=O)NCCN1CCOCC1 (stereo unspecified)  2.41
8. CNC(=S)NCCCCC(NC(=O)C(CC(=O)N1CCOCC1)Cc1cccc2ccccc12)C(=O)NC(CC(C)C)C(O)CC(=O)NCCN1CCOCC1 (stereo unspecified)  2.43
9. CNC(=S)NCCCCC(NC(=O)C(Cc1ccccc1)CS(=O)(=O)C(C)(C)C)C(=O)NC(CC1CCCCC1)C(O)CC(=O)NCCN1CCOCC1 (stereo unspecified)  2.64
10. CNC(=S)NCC#CCC(NC(=O)C(Cc1ccccc1)NS(=O)(=O)N1CCOCC1)C(=O)NC(CC1CCCCC1)C(O)CC(=O)NCCN1CCOCC1 (stereo unspecified)  2.9
11. CNC(=S)NCCCCC(C(=O)NC(CC1CCCCC1)C(O)C(F)(F)C(=O)NCCN1CCOCC1)C(=O)C(Cc1ccccc1)NS(=O)(=O)N1CCOCC1 (stereo unspecified)  2.93
12. CNC(=S)NCCCCC(NC(=O)C(Cc1ccc2ccccc2c1)Cc1cccc2ccccc12)C(=O)NC(CC(C)C)C(O)CC(=O)NCCN1CCOCC1 (stereo unspecified)  3.91
13. CC(C)CC(NC(=O)C(CCCCNC(=N)N[N+](=O)[O-])NC(=O)C(Cc1cccc2ccccc12)Cc1cccc2ccccc12)C(O)CC(=O)NCCN1CCOCC1 (stereo unspecified)  4.09
14. CCC(C)CNC(=O)CC(O)C(CC(C)C)NC(=O)C(CCCCNC(C)=O)NC(=O)C(Cc1ccc2ccccc2c1)Cc1cccc2ccccc12 (stereo unspecified)  4.38
15. CSC(=NC#N)NCCCCC(NC(=O)C(Cc1ccc2ccccc2c1)Cc1cccc2ccccc12)C(=O)NC(CC(C)C)C(O)CC(=O)NCCN1CCOCC1 (stereo unspecified)  4.67
16. N=C(NCC#CCC(NC(=O)C(Cc1cccc2ccccc12)Cc1cccc2ccccc12)C(=O)NC(CC1CCCCC1)C(O)CC(=O)NCCN1CCOCC1)N[N+](=O)[O-] (stereo unspecified)  4.73
17. CCC(C)CNC(=O)CC(O)C(CC(C)C)NC(=O)C(CCCCCNC(=N)N[N+](=O)[O-])NC(=O)C(Cc1ccc2ccccc2c1)Cc1cccc2ccccc12 (stereo unspecified)  5.1
18. CCC(C)CNC(=O)CC(O)C(CC(C)C)NC(=O)C(CC=CCNC(=S)NC)NC(=O)C(Cc1ccc2ccccc2c1)Cc1cccc2ccccc12 (stereo unspecified)  5.23
19. CCC(C)CNC(=O)CC(O)C(CC(C)C)NC(=O)C(CCCCN)NC(=O)C(Cc1ccc2ccccc2c1)Cc1cccc2ccccc12 (stereo unspecified)  5.25
20. CCC(C)CC(=O)CC(O)C(CC(C)C)NC(=O)C(CCCCNC(N)=O)NC(=O)C(Cc1ccc2ccccc2c1)Cc1cccc2ccccc12 (stereo unspecified)  5.31
21. CCC(C)CNC(=O)CC(O)C(CC(C)C)NC(=O)C(CC#CCNC(C)=O)NC(=O)C(Cc1ccc2ccccc2c1)Cc1cccc2ccccc12 (stereo unspecified)  5.32
22. CCC(C)CNC(=O)CC(O)C(CC(C)C)NC(=O)C(CCCCCNC(=S)NC)NC(=O)C(Cc1ccc2ccccc2c1)Cc1cccc2ccccc12 (stereo unspecified)  5.41
23. O=CNCC#CCC(NC(=O)C(Cc1cccc2ccccc12)Cc1cccc2ccccc12)C(=O)NC(CC1CCCCC1)C(O)CC(=O)NCCN1CCOCC1 (stereo unspecified)  5.44
24. CNC(=S)NCC#CCC(NC(=O)C(Cc1ccc2ccccc2c1)Cc1cccc2ccccc12)C(=O)NC(CC1CCCCC1)C(O)CC(=O)NCCN1CCOCC1 (stereo unspecified)  5.44
25. CNC(=S)NCCCCC(NC(=O)C(Cc1ccc2ccccc2c1)Cc1cccc2ccccc12)C(=O)NC(CC1CCCCC1)C(O)CC(=O)NCCN1CCOCC1 (stereo unspecified)  5.46
26. CNC(=S)NCCCCC(NC(=O)C(Cc1ccc2ccccc2c1)Cc1cccc2ccccc12)C(=O)NC(CC(C)C)C(O)C(F)(F)C(=O)NCCN1CCOCC1 (stereo unspecified)  5.5
27. CCC(C)CNC(=O)C(F)(F)C(O)C(CC(C)C)NC(=O)C(CCCCNC(=NC#N)SC)NC(=O)C(Cc1ccc2ccccc2c1)Cc1cccc2ccccc12 (stereo unspecified)  5.51
28. CC(C)CC(NC(=O)CC(O)C(CC(C)C)NC(CCCCNC(=N)N[N+](=O)[O-])NC(=O)C(Cc1ccc2ccccc2c1)Cc1cccc2ccccc12)C(=O)NCc1ccccc1 (stereo unspecified)  5.51
29. CCC(C)CNC(=O)CC(O)C(CC(C)C)NC(=O)C(CC=CCNC(C)=O)NC(=O)C(Cc1ccc2ccccc2c1)Cc1cccc2ccccc12 (stereo unspecified)  5.56
30. CCC(C)CNC(=O)CC(O)C(CC(C)C)NC(=O)C(CCCCNC(=O)NC)NC(=O)C(Cc1ccc2ccccc2c1)Cc1cccc2ccccc12 (stereo unspecified)  5.63
31. CCC(C)CNC(=O)CC(O)C(CC(C)C)NC(=O)C(CCCCCCNC(=S)NC)NC(=O)C(Cc1ccc2ccccc2c1)Cc1cccc2ccccc12 (stereo unspecified)  5.64
32. CCC(C)CNC(=O)CC(O)C(CC(C)C)NC(=O)C(CCCCNC(=S)NC)NC(=O)C(Cc1ccc2ccccc2c1)Cc1cccc2ccccc12 (stereo unspecified)  5.71
33. CC(C)(C)OC(=O)NCC#CCC(NC(=O)C(Cc1ccc2ccccc2c1)Cc1cccc2ccccc12)C(=O)NC(CC1CCCCC1)C(O)CC(=O)NCCN1CCOCC1 (stereo unspecified)  6
34. CCC(C)CNC(=O)CC(O)C(CC(C)C)NC(=O)C(CCCCNC(=S)Nc1ccccc1)NC(=O)C(Cc1ccc2ccccc2c1)Cc1cccc2ccccc12 (stereo unspecified)  6.6
35. CCC(C)CNC(=O)CC(O)C(CC1CCCCC1)NC(=O)C(CCCCNC(=S)NC)NC(=O)C(Cc1ccc2ccccc2c1)Cc1cccc2ccccc12 (stereo unspecified)  6.63
36. CNC(=S)NCCCCC(NC(=O)C(Cc1ccc2ccccc2c1)Cc1cccc2ccccc12)C(=O)NC(CC(C)C)C(O)CC(=O)NC(CC(C)C)C(=O)NCc1ccccc1 (stereo unspecified)  6.7
37. CCC(C)CNC(=O)CC(O)C(CC(C)C)NC(=O)C(CCCCNS(=O)(=O)c1ccc(C)cc1)NC(=O)C(Cc1ccc2ccccc2c1)Cc1cccc2ccccc12 (stereo unspecified)  6.7
38. CCC(C)CNC(=O)CC(O)C(CC(C)C)NC(=O)C(CCCn1cccc1)NC(=O)C(Cc1ccc2ccccc2c1)Cc1cccc2ccccc12 (stereo unspecified)  7.09
39. CCC(C)CNC(=O)CC(O)C(CC(C)C)NC(=O)C(CCCCn1cccc1)NC(=O)C(CC1=Cc2ccccc2C1)Cc1cccc2ccccc12 (stereo unspecified)  7.21
40. CC(C)CC(NC(=O)CC(O)C(CC(C)C)NC(=O)C(CCCCNC(=O)OCc1ccccc1)NC(=O)C(Cc1ccc2ccccc2c1)Cc1cccc2ccccc12)C(=O)NCc1ccccc1 (stereo unspecified)  7.69
41. CCC(C)CNC(=O)CC(O)C(CC(C)C)NC(=O)C(CCCCNP(=O)(Oc1ccccc1)Oc1ccccc1)NC(=O)C(Cc1ccc2ccccc2c1)Cc1cccc2ccccc12 (stereo unspecified)  7.88
